Results reported in patent publication US9796777B2, “Methods of treating malignant tumors” (Canimguide Therapeutics AB, priority 2007, dated 2017).

Tests used:
[1] = tested on: natural killer (NK) cells; assay: Cytotoxic activity of natural killer (NK) cells against K562 (NKTEST, flow cytometry); format: cell-based, human; conditions: four healthy donors; peptides 10 ug/ml; effector:target ratio 40:1
Protocol: Mononuclear cells were separated by standard Ficoll-paque Plus (Pharmacia AB, Sweden) density gradient centrifugation from heparinized blood obtained from healthy donors. NK cell cytotoxic activity of the mononuclear cells was then tested using a commercial kit (NKTEST, Orpegen Pharma GmbH, Heidelberg, Germany) following the manufacturers protocol. Briefly, the kit contains cryopreserved, NK-sensitive target cells (K562) labelled with a lipophilic green fluorescent membrane dye, which enables discrimination of effector and target cells. After incubation with effector cells, killed target cells are identified by a DNA-stain, which penetrates and specifically stain the nuclei of dead target cells. This way the percentage of killed targets can be determined by flow cytometry. The mononuclear cells were pre-incubated for 30 min at 37° C. with the indicated peptides (peptides have been described previously) at 10 ug/ml. Target cells were then added, giving an effector:target ratio of 40:1, and the cell mixture incubated at 37° C. for 3-4 hours. Samples were analysed on a FACSCalibur (BD Biosciences, San Jose, Calif.).

[2] = tested on: PBMC; assay: IL-2 induced proliferation of PBMC with albumin peptides in coated and uncoated tissue culture plates; format: cell-based, human; conditions: PBMC from healthy individuals; peptide 5 μg/ml final; 7 days
Protocol: A mixture of 1 mg/ml IgG in a solution of 9 mg/ml HSA in RPMI (HSA/IgG) was also prepared. 200 μl of HSA or HSA/IgG were then added to each well of the plate. The plates were incubated at 4° C. for 30 minutes after which the wells were washed twice with 200 μl of RPMI1640. The coated plates were used immediately. […] PBMC, isolated from healthy individuals, were diluted in RPMI/2% HSA and peptides were added directly to the cell suspension at a concentration of 10 μg/ml.

[3] = tested on: PBMC; assay: LPS-induced IL-6 production by PBMC, effect of peptides; format: cell-based, human
Protocol: 100 μl of culture medium consisting of RPMI1640 supplemented with 200 IU/ml penicillin, 200 μg/ml streptomycin, 4 mM L-glutamine (Sigma Chemical, Mo., US) and 20% fresh heat-inactivated autologous serum were added to un-coated or -pre-coated microtiter plates followed by 100 μl of PBMC suspension (5×10^4 lymphocytes) in RPMI/2% HSA with peptides at the indicated concentrations. Lipoplysaccharide (LPS, Sigma Chemical Co, MO, US) was added at a final concentration of 0.05 ng/ml. […] All assay conditions were set up in triplicate wells. Supernatants (SNs) were harvested after 24 hrs and residual cells were removed by centrifugation in a refrigerated centrifuge (Beckman) at 2600×g for 5 minutes. SNs were frozen and stored at −70° C. IL-6 in cell culture SNs was measured by ELISA using the DuoSet® ELISA development kit for human IL-6 (R&D Systems Europe, Ltd., Abingdon, UK) following the manufacturer's recommended procedures. The lower limit of detection was 3.1 pg/ml. Samples were analysed as mean of triplicate wells.

[4] = tested on: PBMCs; assay: PHA-induced proliferation of PBMC in the presence of albumin peptides and/or dHSA; format: cell-based, human; conditions: PBMCs from two healthy controls; two PHA concentrations
From the text: Venous blood was drawn from healthy volunteers or from cancer patients in glass vacuum tubes with acid dextrose citrate solution A as anti-coagulant (Vacutainer, Becton Dickinson, Franklin Lakes, N.J.). Erythrocytes were removed by sedimentation on 2% dextran T500 solution (Amersham Pharmacia Biotech AB, Uppsala, Sweden) in 0.9% NaCl (this step was omitted for cultures with PHA-stimulation-see below). […] For cell cultures with PHA-stimulation, PBMC were washed in Hank's Balanced Salt Solution (HBSS) with 10% autologous plasma instead of RPMI/2% HSA. […] The cell suspension was stained with Turk's solution and the number of lymphocytes and monocytes in the PBMC preparation were counted in a hemocytometer. PBMCs were suspended in RPMI/2% HSA and the cell concentration adjusted to 5×10^5 lymphocytes/ml.
100 μl of the cell suspension were seeded into round-bottomed microtiter plates (Corning, N.Y., USA) followed by 100 μl of culture medium consisting of RPMI 1640 (Flow Laboratories, Irvine, Scotland) supplemented with 200 IU/ml Penicillin, 200 μg/ml Streptomycin (Flow laboratories) and 20% heat inactivated autologous serum. Phytohemagglutinin (PHA-P, Sigma Chemical Co, St. Louis, Mo.) at a final concentration of 5 or 10 μg/ml was then added.
All culture conditions were set up in triplicate wells. […] Mean values of disintegrations per minute (dpm) of triplicates were used for the calculations.

[5] = target: T1, β2-integrin LFA-1 (CD11a) (Homo sapiens, UniProt P20701); assay: Immunocytochemical staining of PBMC and THP-1 with anti-integrin (CD11a) antibody with or without albumin peptides; format: binding; conditions: for binding to LFA-1: Table 9 summary; for effect on binding of the LFA-1 antibody (HI 111) to LFA-1: mononuclear blood cells
T1 construct: endogenous in cells; host or cells: human PBMC (healthy controls, cancer patients) and THP-1 monocytic cell line (ATCC)
T1 sequence (P20701 26-1170): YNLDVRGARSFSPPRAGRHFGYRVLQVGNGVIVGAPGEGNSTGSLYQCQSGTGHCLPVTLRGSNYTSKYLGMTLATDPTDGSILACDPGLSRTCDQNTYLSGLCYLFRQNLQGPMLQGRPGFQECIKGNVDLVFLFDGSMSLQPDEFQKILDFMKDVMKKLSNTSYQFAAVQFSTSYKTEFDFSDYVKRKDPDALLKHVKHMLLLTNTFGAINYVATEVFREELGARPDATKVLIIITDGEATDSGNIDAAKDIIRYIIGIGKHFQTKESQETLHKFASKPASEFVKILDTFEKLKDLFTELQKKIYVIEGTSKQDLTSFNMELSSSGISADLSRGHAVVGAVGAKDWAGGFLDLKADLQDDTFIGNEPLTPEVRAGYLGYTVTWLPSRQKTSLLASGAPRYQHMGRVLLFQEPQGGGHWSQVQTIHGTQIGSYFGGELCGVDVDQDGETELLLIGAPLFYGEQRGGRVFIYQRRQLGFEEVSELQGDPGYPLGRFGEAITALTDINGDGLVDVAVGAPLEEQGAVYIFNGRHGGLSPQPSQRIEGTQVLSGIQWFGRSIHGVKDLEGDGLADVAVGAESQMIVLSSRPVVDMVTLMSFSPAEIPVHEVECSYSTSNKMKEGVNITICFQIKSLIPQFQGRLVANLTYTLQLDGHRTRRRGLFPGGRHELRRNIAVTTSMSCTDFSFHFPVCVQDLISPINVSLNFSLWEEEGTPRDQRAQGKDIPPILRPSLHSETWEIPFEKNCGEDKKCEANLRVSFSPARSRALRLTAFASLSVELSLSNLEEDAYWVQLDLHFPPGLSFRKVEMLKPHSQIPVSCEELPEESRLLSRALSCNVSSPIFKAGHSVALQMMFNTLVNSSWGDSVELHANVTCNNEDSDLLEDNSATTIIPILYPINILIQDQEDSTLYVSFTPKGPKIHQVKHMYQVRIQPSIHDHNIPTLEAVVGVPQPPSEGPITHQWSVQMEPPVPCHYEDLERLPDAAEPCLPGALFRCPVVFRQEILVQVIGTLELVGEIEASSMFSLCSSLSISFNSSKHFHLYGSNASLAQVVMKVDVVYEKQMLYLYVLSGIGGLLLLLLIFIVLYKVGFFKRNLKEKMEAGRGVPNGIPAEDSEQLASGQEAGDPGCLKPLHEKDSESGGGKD
T1 sequence (P05107 23-769 partner): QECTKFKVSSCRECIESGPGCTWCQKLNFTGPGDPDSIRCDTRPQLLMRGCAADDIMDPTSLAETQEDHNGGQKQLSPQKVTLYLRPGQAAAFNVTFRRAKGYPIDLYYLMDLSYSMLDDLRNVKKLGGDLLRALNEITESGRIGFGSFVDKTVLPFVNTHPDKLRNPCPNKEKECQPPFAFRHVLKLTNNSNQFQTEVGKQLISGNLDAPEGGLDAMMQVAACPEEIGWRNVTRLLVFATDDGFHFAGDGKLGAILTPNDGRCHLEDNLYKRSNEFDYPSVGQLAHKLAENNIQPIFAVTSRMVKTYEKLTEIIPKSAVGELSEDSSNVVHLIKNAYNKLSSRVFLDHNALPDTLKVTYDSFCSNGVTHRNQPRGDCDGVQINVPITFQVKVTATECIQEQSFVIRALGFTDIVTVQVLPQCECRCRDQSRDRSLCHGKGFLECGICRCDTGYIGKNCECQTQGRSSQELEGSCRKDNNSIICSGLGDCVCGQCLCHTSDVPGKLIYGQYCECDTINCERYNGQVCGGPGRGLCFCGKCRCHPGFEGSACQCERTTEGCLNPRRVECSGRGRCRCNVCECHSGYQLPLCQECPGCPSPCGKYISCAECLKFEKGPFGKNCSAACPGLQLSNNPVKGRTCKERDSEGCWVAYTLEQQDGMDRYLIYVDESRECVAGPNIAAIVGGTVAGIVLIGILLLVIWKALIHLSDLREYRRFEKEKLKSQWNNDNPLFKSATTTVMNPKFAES
Protocol: Cytospin preparations of mononuclear blood cells from healthy controls, cancer patients and a monocytic cell line, THP-1, were prepared (as described under materials and methods), dried and stored at −70° C. In the immunocytological staining, unspecific staining was blocked by incubation with 10% human AB serum. Some of the slides were preincubated for 60 minutes with albumin peptides at a concentration of 40 μg/ml, added to this 10% AB serum, as indicated in the FIG. 8 A-F. The staining procedure was then continued as described in material and methods. The staining intensity of slides stained with and without preincubation with the peptides was recorded semi quantitatively using a standard light microscope.
PBMC were separated as described above. Cultured THP-1 cells (obtained from the American Type Culture Collection through LGL Nordic AB, Sweden) were carefully washed and suspended in RPMI1640. PBMC and THP-1 were immediately spun down on pre-cleaned microscope slides in a Shandon Cytospin (Shandon Scientific Ltd, UK) at 1000 RPM for 7 min at 2.5 or 5×10^4 cells per slide. The slides were left to dry at room temperature over night, after which they were wrapped in parafilm and stored at −70° C. Immediately before use, the cytospins were thawed and fixed with acetone for 5 min at room temperature. The cytospins were first blocked with 10% normal human AB-serum with and without albumin peptides (40 ␣g/ml) for 1 h before staining. Primary antibody, consisting of a monoclonal mouse anti-human CD11a (clone HI111, BD Biosciences) diluted in Tris buffered saline (TBS, pH 7.6) at 5 μg/ml (THP-1) or 1 µg/ml (PBMC), was added. The slides were incubated for 30 min and then washed in TBS followed by Envision-Alkaline Phosphatase (Dako Norden A/S, Denmark) for 30 min. After additional washing in TBS, the slides were incubated in alkaline phoshatase substrate consisting of Fast Red TR salt (Sigma), naphtol AS-MX (Sigma) and 5 mM levamisol (Sigma) to block endogenous alkaline phosphatase activity, for 20 min followed by washing in TBS. They were then counterstained in Mayer's haematoxylin for 1 minute and mounted in Glycergel (Dako Norden NS). Monoclonal mouse IgG1 against an irrelevant antigen (Aspergillus niger glukosoxidase, Dako Norden NS) was used as a negative control. All incubations were performed at room temperature in a moist chamber.
FIG. 24. Inhibition of the binding of anti-LFA-1, mab HI111, to mononuclear blood cells by 3028 peptide and fragments 3325 and 3218. A standard immunohistochemical staining procedure using acetone fixation, 10% human AB-serum for blocking, incubation with HI 111 and a secondary antibody (Ultravision, an alkaline phosphate conjugated polymer attached to Fab-fragments of goat anti-mouse Ig), followed by development with Fast Red. The slides were then mounted in Glycergel. Preincubation with peptides added to the AB serum was as follows: A. No peptide added, B. peptide 3028, C. The C-terminal part (3218), and D. The N-terminal part (3325).

[6] = tested on: PBMC; assay: Human ex vivo model: IL-2 induced proliferation of PBMC in the presence of albumin peptides; conditions: alone or in combination
[7] = tested on: rabbit anti-3028; assay: Inhibition of rabbit anti-3028 ELISA by albumin peptides; format: binding; conditions: Table 9 summary
Protocol: To test if albumin peptides inhibited the binding of the rabbit anti-3028 to 3028 coated wells, rabbit antisera, diluted 1/1000 000 in ELISA reagent diluent, was pre-incubated for 1 hr at room temperature with the indicated concentrations of the peptides. 100 μl of the […], or, alternatively, the monoclonal antibody mixed with peptides, was then added to 3028 coated wells and the ELISA carried out as described.

| binding to LFA-1 [5] | binding to affinity purified antibodies [7] | Substance | effect on percent specific lysis of K562 target cells [1] | effect on IL-2 induced proliferation [2] | effect on LPS induced IL-6 production ([3]; melanoma patients) | effect on LPS induced IL-6 production ([3]; renal cell carcinoma patient) | effect on LPS induced IL-6 production ([3]; two healthy controls) | effect on dHSA modulated PHA stimulated proliferation [4] | effect on LPS induced IL-6 production ([3]; healthy control PBMC1) | effect on LPS induced IL-6 production ([3]; healthy control PBMC 2) | effect on binding of the LFA-1 antibody (HI 111) to LFA-1 [5] | neutralisation of the inhibitory effect of peptide 3028 on IL-2 induced proliferation [6] |
| --- | --- | --- | --- | --- | --- | --- | --- | --- | --- | --- | --- | --- |
|  |  | ELFEQLGEYKFQNALLVR [peptide 3027] | Inhibition was not seen | no statistically significant activity | stimulated one of the melanoma patients | stimulatory effect | slightly stimulatory in one of the controls and had an inhibitory effect in the other |  |  |  |  |  |
|  |  | NEETFLKKYLYEIARRHPYFYAP [peptide 3026] |  | no statistically significant activity |  | stimulatory effect |  | inhibited the stimulatory activity of dHSA | clear biphasic effect | no certain effect |  |  |
| Weak binding |  | VFDEFKPLVE [peptide 3325] |  |  |  |  |  |  |  |  | inhibit the binding of mAb HI 111 to LFA-1 | not neutralised |
| Weak binding | Does not bind | peptide 3218: C-terminal part of peptide 3028 (EPQNLIK) |  |  |  |  |  |  |  |  | inhibit the binding of mAb HI 111 to LFA-1 | not neutralised |
